According to patent publication US20110318415A1, “Hollow Gold Nanospheres (HAuNSs) and HAuNSs-Loaded Microspheres Useful in Drug Delivery” (priority 2009, published 2011):

Legend:
[1] = system: MDA-MB-231 cells; test: Cytotoxicity of DOX-HAuNS and DOX-PEG-HAuNS (MTT); type: cell-based, human; conditions: equivalent DOX concentration 10 μg/mL, no NIR
Method: A total of 2.0×10^4 cells were plated in 96-well plates and incubated for 24 h to allow the cells to attach. The cells were exposed to free DOX, DOX@HAuNS, or DOX@PEG-HAuNS with various DOX concentrations. The cells were or were not irradiated with NIR laser at an output power of 2 W/cm^2 (3 min per treatment, 4 treatments in 2 h). Then the cells were incubated at 37° C. for a further 48 h. […] The data reported represented the means of triplicate measurements. In a separate experiment, the cells were exposed to HAuNS with various Au concentrations and then were or were not irradiated with NIR laser under the same conditions. Cell survival efficiency was measured after the incubation at 37° C. for 48 h.

[2] = system: MDA-MB-231 cells; test: Cell uptake of DOX@HAuNS and DOX@PEG-HAuNS (fluorescence and dark-field microscopy); type: cell-based, human; conditions: without NIR laser; 1 h to 48 h incubation
Method: MDA-MB-231 cells were transferred and cultured onto 20-mm glass cover slips in a 24-well plate and allowed to grow for 2 days. Then the medium was replaced with 1 mL of fresh culture medium containing free DOX, DOX@HAuNS, or DOX@PEG-HAuNS. After incubation for 1 hr or 48 h, the cell monolayer on the cover slip was removed, repeatedly rinsed with PBS, and then mounted for microscopic examination. The cellular fluorescence and dark-field light scattering images were examined under a Zeiss Axio Observer.Z1 fluorescence microscope (Carl Zeiss MicroImaging GmbH, USA) equipped with a dark-field condenser.
In a separated experiment, MDA-MB-231 cells cultured on 20-mm glass cover slips were irradiated with NIR laser (1.0 W/cm^2 for 3 min per treatment, 4 treatments in 2 h). Cell nuclei were stained with DAPI. The cellular fluorescence and light scattering images were obtained as described in the preceding paragraph.

Question: What does the source list for `COc1cccc2c1C(=O)c1c(O)c3c(c(O)c1C2=O)C[C@@](O)(C(=O)CO)C[C@@H]3O[C@H]1C[C@H](N)[C@H](O)[C@H](C)O1` [free DOX, doxorubicin]?
Answer: cells killed [1]: 77.4%; cellular uptake and intracellular distribution [2]: taken up by the tumor cells and distributed to cell nuclei
